Key:
[1] = cold / warm water; cited from earlier work
[2] = tested on: mouse lung cancer cells 3LL; assay: MTT in vitro test, cell survival rate of mouse lung cancer cell line 3LL; format: cell-based
Experimental: (§1) In vitro test for the effect of the composition (AG60) of the present invention on mouse lung cancer cells 3LL and human hepatoma cells SK-HEP-1
(§2) Cancer cells used for this test include human hepatoma cell line SK-HEP-1 and mouse lung cancer cell line 3LL, as recommended by the U.S. NCI(National Cancer Institute).
(§3) These cell lines were incubated in the culture media prepared by adding 10% inactivated FBS(fetal bovine serum), 100 μg/ml of streptomycin and 100 units/ml of penicillin to RPMI 1640 medium, at 37° C. in an incubator(Heraus) under 5% CO2 and 100% humidity. […] After 2 days, the survival rate of cells was calculated by carrying out MTT method using determination of dehydrogenase enzyme in cellular mitochondria and measuring the absorbance at 540 nm by means of a spectrophotometer (ELISA reader), to determine the anti-cancer activity of the composition according to the present invention against respective cancer cells. MTT test is a method in which formazan precipitate formed by reduction of MTT with cellular mitochondria dehydrogenase in living cells is dissolved and then the absorbance is measured. Thus, since in vigorously dividing cancer cells the enzyme is fully active, by the action of enzyme MTT is reduced to form the precipitate which can be dissolved to determine the absorbance, thereby identifying the survival rate of respective cells. […]

[3] = tested on: human hepatoma cells SK-HEP-1; assay: MTT in vitro test, cell survival rate of human hepatoma cell line SK-HEP-1; format: cell-based
Experimental: as §1, §2, §3

Ehrlich solid tumor = assay: Comparative test for inhibition of Ehrlich solid tumor proliferation; format: in vivo, mouse; conditions: An 15, Gh 15, AG60 30 mg/kg; for size of cancer tissue (solid tumor proliferation): i.m. once a day
Experimental: Comparative test for inhibition of Ehrlich solid tumor proliferation with acriflavine neutral(An), guanosine hydrate(Gh) and the composition(AG60) of the present invention
Normal 20 ICR mice(.male., 20±1 g) were divided into 4 groups such that each group included 5 mice. Ehrlich cancer cells were transplanted into the inguinal area of all experimental animals in an amount of 1×10^7 cells per animal. After 24 hours, the control group A received physiological saline in an amount of 10 ml/kg by intramuscular injection, once a day, for 15 days. As the comparative groups, the groups B and C received acriflavine neutral(An) in an amount of 15 mg/kg and guanosine hydrate(Gh) in an amount of 15 mg/kg, respectively, in the same manner as the control group. To the group D the composition (AG60) of the present invention was administered in an amount of 30 mg/kg in the same manner as the control group. During 15 days after the transplantation of cancer cells the proliferation of solid tumor in each group was observed.
The effects on the solid tumor proliferation of the composition(AG60) of the present invention, acriflavine neutral(An) and guanosine hydrate(Gh) were determined by measuring the size of cancer tissues in control group A, the acriflavine neutral group B, the guanosine hydrate group C and the present composition(AG60) group D from the fifth day to the fifteenth day after the transplantation of cancer cells at an interval of 2 days, and are presented in Table 3 and FIG. 5. […] In group D to which the composition(AG60) of the present invention was administered, the size of cancer tissue was measured as 1.5 mm after 5 days from transplantation and, thereafter, increased 0.35 mm every 2 days.

SMILES	solubility in water [1]	cytotoxicity / anti-cancer activity in words ([2]; 3LL cells)	IC50 ([2]; Mus musculus, 3LL, 48 h, read-out: ID value (survival rate of cells))	IC50 ([3]; Homo sapiens, SK-HEP1, 48 h, read-out: ID value (survival rate of cells))	cytotoxicity / anti-cancer activity in words ([3]; SK-HEP-1 cells)	size of cancer tissue (solid tumor proliferation) (Ehrlich solid tumor; day 5)	size of cancer tissue (solid tumor proliferation) (Ehrlich solid tumor; day 7)	size of cancer tissue (solid tumor proliferation) (Ehrlich solid tumor; day 9)	size of cancer tissue (solid tumor proliferation) (Ehrlich solid tumor; day 11)	size of cancer tissue (solid tumor proliferation) (Ehrlich solid tumor; day 13)	size of cancer tissue (solid tumor proliferation) (Ehrlich solid tumor; day 15)	inhibition of solid tumor proliferation in words (Ehrlich solid tumor; i.m. once a day for 15 days)
Nc1nc2c(ncn2[C@@H]2O[C@H](CO)[C@@H](O)[C@H]2O)c(=O)[nH]1 [Guanosine, 2-amino-9-β-D-ribofuranosyl-9H-purin-6-(1H)-one]	slighly soluble in cold water but soluble in warm water	–	–	–	–	–	–	–	–	–	–	–
Nc1nc2c(ncn2[C@@H]2O[C@H](CO)[C@@H](O)[C@H]2O)c(=O)[nH]1.O [Guanosine hydrate]	–	did not show any anti-cancer activity	1520 µg/mL	1530 µg/mL	did not show any anti-cancer activity	4.7 mm	6.8 mm	8.5 mm	12.3 mm	14.5 mm	18.2 mm	showed the similar proliferation pattern to each other

From patent publication US5891864A, “Anti-cancer compositions” (Han; Yung Bok, priority 1995, dated 1999)
